Results: US8785488B2 (Exelixis Patent Company LLC, priority 2009, dated 2014)

Experiments:
h-TGR5 = target: T1, h-TGR5 (Homo sapiens, UniProt Q8TDU6); test: TGR5 cAMP Assay using Cisbio cAMP Dynamic2 htrf kit (hTGR5CRE-luc HEK 293 cells); type: cell-based; settings: h-TGR5 cAMP EC50, Table 1; read-out: cAMP (EC50)
T1 construct: expressed in transfected cells
T1 sequence (Q8TDU6 1-330): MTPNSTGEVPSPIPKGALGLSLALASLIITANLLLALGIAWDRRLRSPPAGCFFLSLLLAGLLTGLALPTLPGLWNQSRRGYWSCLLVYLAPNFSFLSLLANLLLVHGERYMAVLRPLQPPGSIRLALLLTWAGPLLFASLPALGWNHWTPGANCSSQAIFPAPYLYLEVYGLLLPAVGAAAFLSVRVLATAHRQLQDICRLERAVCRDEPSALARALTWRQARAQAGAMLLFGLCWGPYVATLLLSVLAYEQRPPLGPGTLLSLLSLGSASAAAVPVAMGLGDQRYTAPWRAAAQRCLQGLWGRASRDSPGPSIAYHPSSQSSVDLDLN
Method in brief: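 […], 4000 hTGR5CRE-luc HEK 293 cells per well, with 0.5 mM IBMX and d2-cAMP, were incubated 30 min at room temperature with compounds in 8-point half-log series, in quadruplicate.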

human TGR5 (h-TGR5) = target: T2, human TGR5 (h-TGR5) (Homo sapiens, UniProt Q8TDU6); test: TGR5/CRE-Luciferiase Assay (HEK 293 hTGR5/CRE-Luc cells); type: cell-based; settings: h-TGR5 CRE-Luc EC50, Table 1; read-out: CRE-Luc (EC50)
T2 construct: expressed in transfected cells
T2 sequence (Q8TDU6 1-330): T1 sequence (Q8TDU6 1-330)
Method in brief: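 HEK293 cells stably carrying hTGR5 and a CRE-luciferase reporter were exposed to serially diluted compounds (diluted in DMEM with 5% DMSO) for 6 h. Cells were then lysed in luciferase buffer, luminescence was read, and EC50 values were derived from dose-response curves.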

Row | EC50 (h-TGR5) | EC50 (human TGR5 (h-TGR5)) | Compound
1 | 1000 to 10000 nM | 100 to 1000 nM | COc1cc(C(C)(C)c2cnc(SCc3ccc(S(=O)(=O)NC(=O)NN4CCCC4)cc3Cl)n2-c2cc(C)c(F)cn2)ccc1Cl [3-chloro-4-({[5-{1-[4-chloro-3-(methyloxy)phenyl]-1-methylethyl}-1-(5-fluoro-4-methylpyridin-2-yl)-1H-imidazol-2-yl]thio}methyl)-N-[(pyrrolidin-1-ylamino)carbonyl]benzenesulfonamide]
2 | < 100 nM | < 100 nM | COc1cc(C(C)(C)c2cnc(SCc3c(F)cc(C(=O)O)cc3Cl)n2-c2ccc(F)cn2)ccc1Cl [3-chloro-4-({[5-{1-[4-chloro-3-(methyloxy)phenyl]-1-methylethyl}-1-(5-fluoropyridin-2-yl)-1H-imidazol-2-yl]thio}methyl)-5-fluorobenzoic acid]
3 | 100 to 1000 nM | 100 to 1000 nM | COc1cc(C(C)(C)c2cnc(SCc3ccc(S(=O)(=O)NC(=O)NN4CCCC4)cc3Cl)n2-c2ccc(F)cn2)ccc1Cl [3-chloro-4-({[5-{1-[4-chloro-3-(methyloxy)phenyl]-1-methylethyl}-1-(5-fluoropyridin-2-yl)-1H-imidazol-2-yl]thio}methyl)-N-[(pyrrolidin-1-ylamino)carbonyl]benzenesulfonamide]
4 | 100 to 1000 nM | 100 to 1000 nM | COc1cc(C(C)(C)c2cnc(SCc3ccc(S(=O)(=O)NC(=O)NN4CCCC4)cc3Cl)n2-c2ccc(F)cc2)ccc1F [3-chloro-4-({[5-{1-[4-fluoro-3-(methyloxy)phenyl]-1-methylethyl}-1-(4-fluorophenyl)-1H-imidazol-2-yl]thio}methyl)-N-[(pyrrolidin-1-ylamino)carbonyl]benzenesulfonamide]
5 | 1000 to 10000 nM | 100 to 1000 nM | CC(C)(c1ccc(F)c(F)c1)c1cnc(SCc2ccc(S(=O)(=O)NC(=O)NN3CCCC3)cc2Cl)n1-c1ccc(F)cc1F [3-chloro-4-[({1-(2,4-difluorophenyl)-5-[1-(3,4-difluorophenyl)-1-methylethyl]-1H-imidazol-2-yl}thio)methyl]-N-[(pyrrolidin-1-ylamino)carbonyl]benzenesulfonamide]
6 | 1000 to 10000 nM | 100 to 1000 nM | CC(C)(c1ccc(F)c(F)c1)c1cnc(SCc2ccc(S(=O)(=O)NC(=O)NN3CCCC3)cc2Cl)n1-c1ccc(F)c(F)c1 [3-chloro-4-[({1-(3,4-difluorophenyl)-5-[1-(3,4-difluorophenyl)-1-methylethyl]-1H-imidazol-2-yl}thio)methyl]-N-[(pyrrolidin-1-ylamino)carbonyl]benzenesulfonamide]
7 | 1000 to 10000 nM | 100 to 1000 nM | CC(C)(c1ccc(F)c(F)c1)c1cnc(SCc2ccc(S(=O)(=O)NC(=O)NN3CCCC3)cc2Cl)n1-c1ccc(F)c(Cl)c1 [3-chloro-4-[({1-(3-chloro-4-fluorophenyl)-5-[1-(3,4-difluorophenyl)-1-methylethyl]-1H-imidazol-2-yl}thio)methyl]-N-[(pyrrolidin-1-ylamino)carbonyl]benzenesulfonamide]
8 | 1000 to 10000 nM | 100 to 1000 nM | CC(C)(c1ccc(F)cc1)c1cnc(SCc2ccc(S(=O)(=O)NC(=O)NN3CCCC3)cc2Cl)n1-c1ccc(F)c(Cl)c1 [3-chloro-4-[({1-(3-chloro-4-fluorophenyl)-5-[1-(4-fluorophenyl)-1-methylethyl]-1H-imidazol-2-yl}thio)methyl]-N-[(pyrrolidin-1-ylamino)carbonyl]benzenesulfonamide]
9 | 1000 to 10000 nM | 100 to 1000 nM | CC(C)(c1ccc(Cl)c(Cl)c1)c1cnc(SCc2ccc(S(=O)(=O)NC(=O)NN3CCCC3)cc2Cl)n1-c1ncc(F)cc1F [3-chloro-4-[({5-[1-(3,4-dichlorophenyl)-1-methylethyl]-1-(3,5-difluoropyridin-2-yl)-1H-imidazol-2-yl}thio)methyl]-N-[(pyrrolidin-1-ylamino)carbonyl]benzenesulfonamide]
10 | 100 to 1000 nM | < 100 nM | CC(C)(c1ccc(Cl)c(Cl)c1)c1cnc(SCc2c(F)cc(C(=O)O)cc2Cl)n1-c1ccc(F)cc1 [3-chloro-4-[({5-[1-(3,4-dichlorophenyl)-1-methylethyl]-1-(4-fluorophenyl)-1H-imidazol-2-yl}thio)methyl]-5-fluorobenzoic acid]
11 | 1000 to 10000 nM | 100 to 1000 nM | CC(C)(c1ccc(Cl)c(Cl)c1)c1cnc(SCc2ccc(S(=O)(=O)NC(=O)NN3CCCC3)cc2Cl)n1-c1ccc(F)cc1 [3-chloro-4-[({5-[1-(3,4-dichlorophenyl)-1-methylethyl]-1-(4-fluorophenyl)-1H-imidazol-2-yl}thio)methyl]-N-[(pyrrolidin-1-ylamino)carbonyl]benzenesulfonamide]
12 | 100 to 1000 nM | 100 to 1000 nM | CC(C)NC(=O)NS(=O)(=O)c1ccc(CSc2ncc(C(C)(C)c3ccc(Cl)c(Cl)c3)n2-c2ccc(F)cc2)c(Cl)c1 [3-chloro-4-[({5-[1-(3,4-dichlorophenyl)-1-methylethyl]-1-(4-fluorophenyl)-1H-imidazol-2-yl}thio)methyl]-N-{[(1-methylethyl)amino]carbonyl}benzenesulfonamide]
13 | 100 to 1000 nM | 100 to 1000 nM | CC(C)(c1ccc(Cl)c(Cl)c1)c1cnc(SCc2ccc(S(N)(=O)=O)cc2Cl)n1-c1ccc(F)cc1 [3-chloro-4-[({5-[1-(3,4-dichlorophenyl)-1-methylethyl]-1-(4-fluorophenyl)-1H-imidazol-2-yl}thio)methyl]benzenesulfonamide]
14 | 100 to 1000 nM | 100 to 1000 nM | CC(C)(c1ccc(Cl)c(Cl)c1)c1cnc(SCc2ccc(S(=O)(=O)O)cc2Cl)n1-c1ccc(F)cc1 [3-chloro-4-[({5-[1-(3,4-dichlorophenyl)-1-methylethyl]-1-(4-fluorophenyl)-1H-imidazol-2-yl}thio)methyl]benzenesulfonic acid]
15 | 100 to 1000 nM | 100 to 1000 nM | CC(C)(c1ccc(Cl)c(Cl)c1)c1cnc(SCc2ccc(C(=O)O)cc2Cl)n1-c1ccc(F)cc1 [3-chloro-4-[({5-[1-(3,4-dichlorophenyl)-1-methylethyl]-1-(4-fluorophenyl)-1H-imidazol-2-yl}thio)methyl]benzoic acid]
16 | 100 to 1000 nM | 100 to 1000 nM | CC(C)(c1ccc(Cl)c(Cl)c1)c1cnc(SCc2ccc(S(=O)(=O)NC(=O)NN3CCCC3)cc2Cl)n1-c1ccc(F)cn1 [3-chloro-4-[({5-[1-(3,4-dichlorophenyl)-1-methylethyl]-1-(5-fluoropyridin-2-yl)-1H-imidazol-2-yl}thio)methyl]-N-[(pyrrolidin-1-ylamino)carbonyl]benzenesulfonamide]
17 | < 100 nM | < 100 nM | COc1cc(-n2c(C(C)(C)c3ccc(Cl)c(Cl)c3)cnc2SCc2c(F)cc(C(=O)O)cc2Cl)ccc1F [3-chloro-4-[({5-[1-(3,4-dichlorophenyl)-1-methylethyl]-1-[4-fluoro-3-(methyloxy)phenyl]-1H-imidazol-2-yl}thio)methyl]-5-fluorobenzoic acid]
18 | 100 to 1000 nM | 100 to 1000 nM | COc1cc(-n2c(C(C)(C)c3ccc(Cl)c(Cl)c3)cnc2SCc2ccc(S(=O)(=O)NC(=O)NN3CCOCC3)cc2Cl)ccc1F [3-chloro-4-[({5-[1-(3,4-dichlorophenyl)-1-methylethyl]-1-[4-fluoro-3-(methyloxy)phenyl]-1H-imidazol-2-yl}thio)methyl]-N-[(morpholin-4-ylamino)carbonyl]benzenesulfonamide]
19 | 1000 to 10000 nM | 100 to 1000 nM | COc1cc(-n2c(C(C)(C)c3ccc(Cl)c(Cl)c3)cnc2SCc2ccc(S(=O)(=O)NC(=O)NN3CCCC3)cc2Cl)ccc1F [3-chloro-4-[({5-[1-(3,4-dichlorophenyl)-1-methylethyl]-1-[4-fluoro-3-(methyloxy)phenyl]-1H-imidazol-2-yl}thio)methyl]-N-[(pyrrolidin-1-ylamino)carbonyl]benzenesulfonamide]
20 | 1000 to 10000 nM | 100 to 1000 nM | Cc1cc(-n2c(C(C)(C)c3ccc(F)c(F)c3)cnc2SCc2ccc(S(=O)(=O)NC(=O)NN3CCCC3)cc2Cl)ccc1F [3-chloro-4-[({5-[1-(3,4-difluorophcnyl)-1-methylethyl]-1-(4-fluoro-3-methylphenyl)-1H-imidazol-2-yl}thio)methyl]-N-[(pyrrolidin-1-ylamino)carbonyl]benzenesulfonamide]
21 | 1000 to 10000 nM | 100 to 1000 nM | CC(C)(c1ccc(F)c(F)c1)c1cnc(SCc2ccc(S(=O)(=O)NC(=O)NN3CCCC3)cc2Cl)n1-c1ccc(F)cc1 [3-chloro-4-[({5-[1-(3,4-difluorophenyl)-1-methylethyl]-1-(4-fluorophenyl)-1H-imidazol-2-yl}thio)methyl]-N-[(pyrrolidin-1-ylamino)carbonyl]benzenesulfonamide]
22 | 100 to 1000 nM | 100 to 1000 nM | CC(C)NC(=O)NS(=O)(=O)c1ccc(CSc2ncc(C(C)(C)c3ccc(F)c(F)c3)n2-c2ccc(F)cc2)c(Cl)c1 [3-chloro-4-[({5-[1-(3,4-difluorophenyl)-1-methylethyl]-1-(4-fluorophenyl)-1H-imidazol-2-yl}thio)methyl]-N-{[(1-methylethyl)amino]carbonyl}benzenesulfonamide]
23 | 100 to 1000 nM | 100 to 1000 nM | CC(C)(c1ccc(F)c(F)c1)c1cnc(SCc2ccc(S(N)(=O)=O)cc2Cl)n1-c1ccc(F)cc1 [3-chloro-4-[({5-[1-(3,4-difluorophenyl)-1-methylethyl]-1-(4-fluorophenyl)-1H-imidazol-2-yl}thio)methyl]benzenesulfonamide]
